Laboratory results as given in patent publication US7956085B2, “1,4-benzothiepine 1,1-dioxide derivatives substituted by benzyl radicals, method for their preparation, pharmaceuticals comprising these compounds, and the use thereof” (Sanofi-Aventis Deutschland GmbH, priority 2006, dated 2011).
pIC50: −log10 of the molar value.

Biological target: T1, human IBAT (Homo sapiens, UniProt Q12908)
T1 construct: Bases 599 to 1645 correspond to the complete coding region of human IBAT; expressed in transfected cells
T1 sequence (Q12908 1-348): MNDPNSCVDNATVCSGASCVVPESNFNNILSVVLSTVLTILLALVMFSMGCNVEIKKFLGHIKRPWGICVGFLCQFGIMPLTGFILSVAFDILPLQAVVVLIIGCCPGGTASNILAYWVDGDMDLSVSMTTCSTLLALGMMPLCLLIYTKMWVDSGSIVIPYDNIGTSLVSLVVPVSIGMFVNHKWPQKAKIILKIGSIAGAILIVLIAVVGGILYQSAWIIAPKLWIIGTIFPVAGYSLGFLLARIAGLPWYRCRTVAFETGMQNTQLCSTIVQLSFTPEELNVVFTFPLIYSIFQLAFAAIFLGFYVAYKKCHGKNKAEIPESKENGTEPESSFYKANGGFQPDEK
Assay: In vitro IBAT inhibition assay: IBAT-dependent uptake of [3H]-taurocholic acid into CHO-hIBAT cells
Format: cell-based
Conditions: 10 μM taurocholic acid, 60 min at room temperature, read-out: IC-50 (human IBAT)
Text: Preparation and Procedure for the In Vitro IBAT Inhibition Assay:
1. Cloning of an Expression Vector for Human IBAT
The cDNA (complementary deoxyribonucleic acid) of human IBAT was cloned by standard methods of molecular biology as described for example in Molecular Cloning: A Laboratory Manual by Joseph Sambrook and David Russell, and introduced into the pcDNA1 vector from Invitrogen. […] Bases 599 to 1645 correspond to the complete coding region of human IBAT.
2. Preparation of a Recombinant Cell Line with Constitutive Expression of Human IBAT
The expression vector for human IBAT was introduced by stable transfection into CHO (chinese hamster ovary) cells. To select single cell clones, 400 μg/ml Geneticin was added to the cell culture medium (Ham's F12 medium supplemented with 10% fetal calf serum, 100 units/ml penicillin, 100 units/ml streptomycin). The functionality of the single cell clones resulting from the selection was assayed via their uptake activity for radiolabeled taurocholic acid ([^3H]-TCA). The cell clone with the highest uptake activity for [^3H]-TCA, referred to hereinafter as CHO-hIBAT, was selected for the further assays and further cultured in the presence of 400 μg/ml Geneticin.
3. Measurement of The Inhibitory Effect of The Compound of The Invention on The IBAT-Dependent Uptake of Taurocholic Acid into Cells
CHO-hIBAT cells were seeded in a concentration of 40 000 cells per well in poly-D-lysine-coated 96-well plates in cell culture medium and cultured for 24 h. The cells were then washed once with sodium-free transport assay buffer (140 mM choline chloride, 2 mM potassium chloride, 1 mM magnesium chloride, 1 mM calcium chloride, 10 mM HEPES/Tris, pH 7.5) and subsequently incubated either with sodium-free transport assay buffer as negative control or with sodium-containing transport assay buffer (140 mM sodium chloride, 2 mM potassium chloride, 1 mM magnesium chloride, 1 mM calcium chloride, 10 mM HEPES/Tris, pH 7.5) as positive control at room temperature for 30 min. At the same time, the assay wells were also incubated in the presence of the compound to be investigated in varying concentration in sodium-containing transport assay buffer at room temperature for 30 min. The test substances were appropriately diluted in transport assay buffer (40 μl/well) starting from a 10 mM stock solution in dimethyl sulfoxide. The assay was then started by adding 10 μl/well of a mixture of radiolabeled taurocholic acid ([^3H]-TCA) and unlabeled taurocholic acid. The final concentration of taurocholic acid in the assay was 10 μM. After an incubation time of 60 min at room temperature, the reaction was stopped by adding 100 μl/well of sodium-free transport assay buffer (4° C.), and each well was washed three times with sodium-free transport assay buffer. Finally, 100 μl of scintillation fluid were added to each well, and the radioactivity taken up into the cells was determined in a MicroBeta Scintillation Microplate Reader from Wallac.
The half-maximum inhibitory effect of the test compound (IC50 value, inhibitory concentration 50) was determined in the following way: • 1. Determination of the value for 0% inhibition. This is the measurement in the absence of substance, measured in sodium-containing transport assay buffer. • 2. Determination of the value for 100% inhibition. This is the measurement in the absence of substance, measured in sodium-free transport assay buffer. • 3. Calculation of the percentage inhibitions of those measurements carried out in the presence of various concentrations of the compound to be investigated. It was then possible to find therefrom the concentration of the compound which reduces the uptake of taurocholic acid by 50% (IC50 value).

| Compound | pIC50 |
| --- | --- |
| CCCC[C@]1(CC)CS(=O)(=O)c2ccc(N(C)C)cc2[C@@H](c2cccc(NC(=O)N[C@@H]3O[C@H](COS(=O)(=O)O)[C@@H](O)[C@H](OCc4ccccc4)[C@H]3O)c2)[C@H]1O [Example 4] | 8.62 |
| CCCC[C@]1(CC)CS(=O)(=O)c2ccc(N(C)C)cc2[C@@H](c2cccc(NC(=O)N[C@@H]3O[C@H](CO)[C@@H](O)[C@H](OCc4ccccc4)[C@H]3O)c2)[C@H]1O [Example 1] | 8.36 |
| CCCC[C@]1(CC)CS(=O)(=O)c2ccc(N(C)C)cc2[C@@H](c2cccc(NC(=O)N[C@@H]3O[C@H](COS(=O)(=O)O)[C@@H](OS(=O)(=O)O)[C@H](OCc4ccccc4)[C@H]3O)c2)[C@H]1O [Example 5] | 8.70 |

Other lines, results leading:

| pIC50 | Compound |
| --- | --- |
| 8.16 | CCCCC1(CCCC)CS(=O)(=O)c2ccc(N(C)C)cc2[C@@H](c2cccc(NC(=O)N[C@@H]3O[C@H](CO)[C@@H](O)[C@H](OCc4ccccc4)[C@H]3O)c2)[C@H]1O [Example 2] |
| 7.97 | CCCCC1(CCCC)CS(=O)(=O)c2ccc(N(C)C)cc2[C@@H](c2cccc(NC(=O)N[C@@H]3O[C@H](COS(=O)(=O)O)[C@@H](O)[C@H](OCc4ccccc4)[C@H]3O)c2)[C@H]1O [Example 6] |
| 8.46 | CCCC[C@]1(CC)CS(=O)(=O)c2ccc(N(C)C)cc2[C@@H](c2cccc(NC(=O)N[C@@H]3O[C@H](COCc4ccccc4)[C@@H](O)[C@H](OCc4ccccc4)[C@H]3O)c2)[C@H]1O [Example 3] |
